Measurements from patent US11952587B2, “Method for producing platelets” (KYOTO UNIVERSITY, priority 2017, dated 2024).

How the values were obtained:
imMKCL [1] = assay: HDAC6 inhibitor addition in static culture: cell morphology by microscope; assay type: cell-based, human; details: for degree of hypertrophy: versus DMSO group; for cell morphology (apoptosis, hypertrophy): Day 3 from gene off; for PPF associated with megakaryocyte maturation: Day 5 from gene off
Procedure: To confirm if apoptosis was caused due to the drug addition, cell morphology was observed when dimethyl sulfoxide (DMSO) was used as a solvent control of the drug or an HDAC6 inhibitor was added at the time of starting the culture in the platelet producing medium in a static culture under the same conditions as above. […] In the photograph, cell hypertrophy associated with megakaryocyte maturation is observed. […] PPF associated with megakaryocyte maturation is recognized. FIG. 24, panels (e) and (f) show cell morphology on Day 5 from the gene off static culture to which BML-281 100 nM was added and to which Nexturastat A 2 μM was added, respectively. […] Additionally, when an HDAC6 inhibitor was added, the degree of megakaryocyte maturation is rather hindered but proceeds to hypertrophy. Based on the above findings, HDAC6, seems to have role in the proplatelet formation.

imMKCL [2] = assay: HDAC6 inhibitor addition in shaking flask culture: number of platelets; assay type: cell-based, human; details: for number of platelets produced: added in a concentration of 100 nM or more to a medium
Procedure: After turning genes (c-MYC, BMI1, and BCL-XL) off, 1×10^5 cells/ml of imMKCL was seeded in a flask to carry out shaking flask culture using a platelet producing medium. The culture was carried out under the shaking conditions of 100 rpm, 37° C., and 5% CO2. To the platelet producing medium, BML-281 1 nM, 10 nM, or 100 nM, or Nexturastat A 20 nM was added as an HDAC6 inhibitor at the time of starting the culture. […] The number of platelets was measured on Day 6 after addition of these HDAC6 inhibitors.
(§1) After turning genes (c-MYC, BMI1, and BCL-XL) off, 1×10^5 cells/ml of imMKCL was seeded in a flask to carry out shaking flask culture using a platelet producing medium under a shaking condition of 100 rpm. Further, after turning genes (c-MYC, BMI1, and BCL-XL) off, 1×10^5 cells/ml of imMKCL was seeded in a culture dish to carry out static culture. For both shaking culture and static culture, BML-281 100 nM, or Nexturastat A 500 nM, 1 μM, or 2 μM was added at the time of starting the cultures. The number of platelets was measured on Day 6 from addition of these HDAC6 inhibitors. Additionally, Annexin V positive ratios of the obtained platelets were measured.
(§2) Subsequently, in order to examine in more detail which process in megakaryocyte maturation is affected by the HDAC6 inhibitor, the timing of adding Nexturastat A 2 μM during the flask culture was changed to Day 3, Day 4, and Day 5 from the start of the culture after the gene off and the effect on the amount of platelets to be produced was studied. Culture conditions other than the timing of adding HDAC6 inhibitors were the same as those in the experiment referring to FIGS. 21 to 24. […] In FIG. 24, panel (c), PPF was recognized at Day 5 in static culture. In view of this, the effect available at the time of shedding platelets (presumed mechanism) seems to be about 40%.

HDAC6 = target: T1, HDAC6 (Homo sapiens, UniProt Q9UBN7); details: cited from earlier work
T1 sequence (Q9UBN7 1-1215): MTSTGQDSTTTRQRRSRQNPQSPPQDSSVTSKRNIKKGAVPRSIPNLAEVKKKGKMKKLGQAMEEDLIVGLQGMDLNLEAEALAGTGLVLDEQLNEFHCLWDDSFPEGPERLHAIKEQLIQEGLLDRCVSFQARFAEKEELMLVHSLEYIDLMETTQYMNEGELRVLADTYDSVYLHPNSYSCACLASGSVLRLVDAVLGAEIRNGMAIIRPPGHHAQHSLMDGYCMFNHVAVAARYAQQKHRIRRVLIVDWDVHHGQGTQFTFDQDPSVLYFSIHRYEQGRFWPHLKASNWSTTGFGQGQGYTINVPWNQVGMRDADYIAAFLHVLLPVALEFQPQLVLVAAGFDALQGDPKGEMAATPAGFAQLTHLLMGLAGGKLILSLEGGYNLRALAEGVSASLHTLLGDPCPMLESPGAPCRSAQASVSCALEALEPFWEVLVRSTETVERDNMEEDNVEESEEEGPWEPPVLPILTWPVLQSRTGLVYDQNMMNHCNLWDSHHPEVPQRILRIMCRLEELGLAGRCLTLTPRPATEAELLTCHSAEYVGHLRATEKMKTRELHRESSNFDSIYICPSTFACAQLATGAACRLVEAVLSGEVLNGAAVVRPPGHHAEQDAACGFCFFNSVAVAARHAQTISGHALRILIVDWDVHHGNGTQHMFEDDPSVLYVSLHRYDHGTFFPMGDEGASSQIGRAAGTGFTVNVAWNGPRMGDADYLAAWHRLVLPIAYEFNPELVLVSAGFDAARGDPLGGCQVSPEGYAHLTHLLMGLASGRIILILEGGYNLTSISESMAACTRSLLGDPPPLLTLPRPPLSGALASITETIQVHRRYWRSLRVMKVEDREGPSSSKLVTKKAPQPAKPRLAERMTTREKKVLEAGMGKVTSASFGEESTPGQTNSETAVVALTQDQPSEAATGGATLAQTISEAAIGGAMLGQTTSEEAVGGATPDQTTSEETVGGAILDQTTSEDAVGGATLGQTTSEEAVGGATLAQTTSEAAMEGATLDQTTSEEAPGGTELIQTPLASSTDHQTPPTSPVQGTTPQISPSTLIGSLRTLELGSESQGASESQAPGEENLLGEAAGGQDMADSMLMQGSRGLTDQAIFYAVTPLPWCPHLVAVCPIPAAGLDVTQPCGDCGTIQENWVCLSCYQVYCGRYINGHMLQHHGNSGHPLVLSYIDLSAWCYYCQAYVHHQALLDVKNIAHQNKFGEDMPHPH

imMKCL [3] = assay: HDAC6 inhibitor addition in static culture (Dish): number of platelets; assay type: cell-based, human
Procedure: as §1, §2

CC(C)(C)OC(=O)Nc1ccc(-c2cc(C(=O)NCCCCCCC(=O)NO)no2)cc1 [BML-281, N-Hydroxy-7-[5-(4-tertbutoxycarbonylaminophenyl)-3-isoxazolecarboxamido]heptanamide]
degree of hypertrophy (imMKCL [1]; Day 3, 100 nM): slightly lower than the group containing DMSO
cell morphology (apoptosis, hypertrophy) (imMKCL [1]; 100 nM): Apoptosis is not recognized but cell hypertrophy is recognized
PPF associated with megakaryocyte maturation (imMKCL [1]; 100 nM): not recognized
number of platelets produced (imMKCL [2]): considerably suppress the number of platelets produced
platelet production (number of platelets on Day 6) (imMKCL [2]; shaking flask culture, 100 nM added at start of culture): notable reduction in the platelet production
known HDAC inhibition (HDAC6): inhibit HDAC6, 1, 2, 7, 8, and 10

CCCCN(Cc1ccc(C(=O)NO)cc1)C(=O)Nc1ccccc1 [Nexturastat A, 4-[[Butyl[(phenylamino)carbonyl]amino]methyl]-N-hydroxybenzamide]
degree of hypertrophy (imMKCL [1]; Day 3, 2 μM): slightly lower than the group containing DMSO
cell morphology (apoptosis, hypertrophy) (imMKCL [1]; 2 μM): Apoptosis was not recognized but cell hypertrophy was observed
PPF associated with megakaryocyte maturation (imMKCL [1]; 2 μM): not recognized
number of platelets produced (imMKCL [2]): considerably suppress the number of platelets produced
number of platelets produced on Day 6, concentration dependence (imMKCL [2]; shaking flask culture, 500 nM, 1 μM, or 2 μM added at start): decreases in an inhibitor concentration-dependent manner
platelet production (number of platelets on Day 6) (imMKCL [2]; shaking flask culture, 2 μM added): notable reduction in the platelet production
platelet production (imMKCL [2]; shaking flask culture, 2 μM added on Day 0 or Days 3 and 4 after gene off): notable reduction in the platelet production
platelet production (imMKCL [2]; shaking flask culture, 2 μM added on Day 5 after gene off): production equivalent to that in non-addition group
known HDAC inhibition (HDAC6): specifically inhibit HDAC6
reduction of number of platelets produced (imMKCL [3]; static culture (Dish), 2 μM added on Day 5): about 40%
number of platelets produced on Day 6, concentration dependence (imMKCL [3]; static culture, 500 nM, 1 μM, or 2 μM added at start): decreases in an inhibitor concentration-dependent manner
